In US10640545B2 (THE GOVERNORS OF THE UNIVERSITY OF ALBERTA, priority 2017, dated 2020):
Entries after “also recorded” stand apart in the source; their conditions may differ. *1 amine or outer side, *2 acyl side, *3 side chain or, on linkers, in order; H or OH if unused. Where a SMILES comes first, the peptide text is derived from it. [ ]: non-standard residue; d: D form. Phe(4-Br) = N[C@@H](Cc1ccc(Br)cc1)C(=O)O; X1 = N=C(N)NCCCN(N[*:1])C(=O)[*:2]; azaLeu = CC(C)CN(N[*:1])C(=O)[*:2]; αMeR = C[C@](N)(CCCNC(=N)N)C(=O)O; pGlu = O=C1CC[C@@H](C(=O)O)N1; αMeL = CC(C)C[C@](C)(N)C(=O)O; Nle = CCCC[C@H](N)C(=O)O; Aib = CC(C)(N)C(=O)O

Legend:
[1] = system: anesthetized mice; assay: Blood pressure assay in anesthetized mice; format: in vivo; details: 1.4 μM/kg body weight injected; for blood pressure lowering (hypotensive) effect: SBP, DBP, MABP
Experimental: Synthetic peptides 8-19 were tested for blood pressure lowering abilities in anesthetized mice. Apelin peptides were injected through […], monitoring blood pressure (BP) and heart rate (HR) over 60 minutes.
Mice were anaesthetized with 1.5% isoflurane/oxygen, and body temperature was monitored and maintained at 36° C. by a heating pad. The aorta was cannulated via the right carotid artery using a PV loop catheter (Model 1.2F from Scisense, Transonic) in order to continuously record arterial blood pressure and heart rate (LabScribe 2.0, Scisense). […] Results are reported as systolic blood pressure (SBP), diastolic blood pressure (DBP), mean arterial blood pressure (MABP) and heart rate (HR).
Apelin peptides 11, 56-59 as well as the KLKB1-cleavage fragments 54 and 55 were tested for blood pressure lowering abilities in anesthetized mice.
Mice were anesthetized with 1.5% isoflurane/oxygen, and body temperature was monitored and maintained at 36° C. by a heating pad. The aorta was cannulated via the right carotid artery using a PV loop catheter (model 1.2F from Scisense, Transonic) in order to continuously record arterial blood pressure and heart rate (LabScribe 2.0, Scisense). Compounds 11, and 54-59 or 55-59 (1.4 μM/kg body weight) or the same volume of saline was injected via the right jugular vein. Results are reported as systolic blood pressure (SBP), diastolic blood pressure (DBP), mean arterial blood pressure (MABP), and heart rate (HR) shown in FIGS. 15A-D.
Apelin peptides were delivered systemically via the right internal jugular vein while blood pressure (BP) and heart rate (HR) were continuously monitored in the aorta cannulated via the right carotid artery. All N-terminally extended apelin peptides, except 58, show pronounced and time-stable blood pressure lowering effects (FIGS. 15a-d). […] This correlates with the results obtained from the Ca^2+ mobilization assay.

[2] = molecular target: T1, wild-type rat apelin receptor (Rattus norvegicus, UniProt Q9JHG3); assay: Radioligand binding, displacement of [125I]-pyr-1-apelin-13 on CHO cell membranes; details: for Ki: displacement of [125I]-pyr-1-apelin-13 (0.2 nM), CHO membranes, rat apelin receptor-EGFP, means ± SE, read-out: Affinity Ki; for receptor binding affinity (in words): rat apelin receptor
T1 construct: expressed in transfected cells
T1 sequence (Q9JHG3 1-377): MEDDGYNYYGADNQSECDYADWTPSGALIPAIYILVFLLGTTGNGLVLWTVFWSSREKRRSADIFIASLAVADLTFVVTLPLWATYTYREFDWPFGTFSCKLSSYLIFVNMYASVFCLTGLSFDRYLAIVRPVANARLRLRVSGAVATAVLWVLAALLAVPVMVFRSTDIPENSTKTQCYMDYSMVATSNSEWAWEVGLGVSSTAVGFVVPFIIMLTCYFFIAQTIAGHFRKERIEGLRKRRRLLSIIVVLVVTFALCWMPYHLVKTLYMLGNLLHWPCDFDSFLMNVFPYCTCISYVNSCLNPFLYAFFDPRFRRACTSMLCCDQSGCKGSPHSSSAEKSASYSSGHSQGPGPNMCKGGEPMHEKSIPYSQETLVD
Experimental: This experiment evaluated the ability of peptides of the present embodiments to bind to the wild-type rat apelin receptor, in order to examine the impact of synthetic modification within the critical RPRL motif of the apelin peptides.
Membrane preparations from CHO cells stably expressing the wild-type rat apelin receptor-EGFP were prepared as previously described (Gerbier et al., New Structural Insights Into The Apelin Receptor: Identification Of Key Residues For Apelin binding; FASEB J. 2015, 29, 314-322; Iturrioz et. al., Development Of Original Metabolically-Stable Apelin-17 Peptides With Diuretic And Cardiovascular Effects; FASEB J. 2017, 31, 687-700.) Crude membrane preparations (1 μg total mass of membranes/assay) were incubated for 3 h at 20° C. with 0.2 nM [^125I]-pyr-1-apelin-13 (monoiodinated on Lys^8 with Bolton-Hunter reagent, Perkin Elmer, Wellesley, Mass., USA) in binding buffer (50 mM HEPES, 5 mM MgCl2 1149 pH 7.5, BSA 1%) alone or in presence of the different compounds at various concentrations. The reaction was stopped by adding 4 mL of cold binding buffer, filtered on Whatman GF/C filters and washed with 5 mL of cold binding buffer. Radioactivity was then counted using a Wizard 1470 Wallac gamma counter (Perkin Elmer, Turku, Finland). Binding experiment data were analyzed with Graph Pad Prism.

[3] = in vitro; details: human, plasma
[4] = system: isolated rat hearts; assay: Langendorff isolated heart, ischemia-reperfusion injury; details: ex vivo heart, 30 min ischemia, peptide at start of reperfusion for 10 min at 1 pM
Experimental: The ex vivo heart was assessed for a variety of parameters (heart rate (HR); left ventricle developed pressure (LVDP); maximum derivative of change in systolic pressure over time (max dP/dt); minimum derivative of change in diastolic pressure over time (min dP/dt); and rate-pressure product (RPP)) indicative of general heart function and performance (FIG. 11).
Langendorff heart perfusion and ischemia-reperfusion injury were prepared and cardiac function was measured. Mice were heparinized and anaesthetized with 1.5-2% isoflurane inhalation. The heart was excised, mounted on a Langendorff system, and perfused at a consistent pressure of 80 mmHg with modified Krebs-Henseleit solution (116 mM NaCl, 3.2 mM KCl, 2.0 mM CaCl2), 1.2 mM MgSO4, 25 mM NaHCO3, 1.2 mM KH2PO4, 11 mM glucose, 0.5 mM EDTA and 2 mM pyruvate), which was kept at 37° C. and continuously oxygenated with 95% O2 and 5% CO2 which maintained the perfusion buffer at pH 7.4. After stabilization and 10 min baseline recording, global ischemia was induced for 30 min followed by 40 min of reperfusion. Apelin 17 (2) or apelin peptides (11, 17, 18, or 19) were given at the start of reperfusion for 10 min at a concentration of 1 pM. Left ventricular functions were obtained continuously by PowerLab system (ADInstruments, Australia). Data was reported as mean value of every 5 min. Left ventricular functions were reported as: Left Ventricular Developed Pressure (LVDP); Heart rate (HR); maximum derivative of change in systolic pressure over time (max dP/dt); minimum derivative of change in diastolic pressure over time (min dP/dt); and Rate Pressure Product (RPP).

[5] = system: recombinant human neprilysin (rhNEP, Sino Biological); assay: rhNEP diluted in Tris buffer (100 mM Tris, 100 mM NaCl, 10 μM ZnCl2, pH 7.5), 3.1 nM final concentration; details: 37° C., up to 72 h

| Compound | Ki [2] [nM] | remaining at 0.5 h, 80 µM [3] [%] | remaining at 1 h, 80 µM [3] [%] | cleaved bond [5] | other results |
| --- | --- | --- | --- | --- | --- |
| CCCC[C@H](NC(=O)[C@@H]1CCCN1C(=O)CNC(=O)[C@H](CCCCN)NC(=O)[C@H](Cc1c[nH]cn1)NC(=O)[C@H](CO)NC(=O)[C@H](CC(C)C)NC(=O)[C@](C)(CCCNC(=N)N)NC(=O)[C@@H]1CCCN1C(=O)[C@H](CCCNC(=N)N)NC(=O)[C@H](CCC(N)=O)NC(=O)[C@H](CCCNC(=N)N)NC(=O)[C@H](CCCNC(=N)N)NC(=O)[C@H](Cc1ccccc1)NC(=O)[C@@H](N)CCCCN)C(=O)NC(C)(C)C(=O)N[C@@H](Cc1ccc(Br)cc1)C(=O)O [Peptide 13, Lys-Phe-Arg-Arg-Gln-Arg-Pro-αMeArg-Leu-Ser-His-Lys-Gly-Pro-Nle-Aib-paraBrPhe] (H-KFRRQRP[αMeR]LSHKGP[Nle][Aib][Phe(4-Br)]-OH; N-terminus and C-terminus assumed) | 0.13 ± 0.032 | 61 ± 10 | 55 ± 4 |  | effect on heart rate (HR) [1]: had an impact on the heart rate; blood pressure lowering (hypotensive) effect [1]: without inducing any vasoactive effects |
| Lys-Phe-Arg-Arg-Gln-Arg-Pro-Arg-azaLeu-Ser-His-Lys-Gly-Pro-Nle-Aib-paraBrPhe |  |  |  | Nle15-Aib16, minor |  |
| Lys-Phe-Arg-Arg-Gln-Arg-Pro-Arg-αMeLeu-Ser-His-Lys-Gly-Pro-Nle-Aib-paraBrPhe |  |  |  | Nle15-Aib16, minor |  |
| pGlu-Arg-Pro-Arg-NMeLeu-Ser-His-Lys-Gly-Pro-Nle-Aib-paraBrPhe |  |  |  | Nle11-Aib12, minor |  |
| pGlu-Arg-Pro-Arg-azaLeu-Ser-His-Lys-Gly-Pro-Nle-Aib-paraBrPhe |  |  |  | Nle11-Aib12, minor |  |
| pGlu-Arg-Pro-Arg-αMeLeu-Ser-His-Lys-Gly-Pro-Nle-Aib-paraBrPhe |  |  |  | Nle11-Aib12, minor |  |
| pGlu-Arg-Pro-αMeArg-Leu-Ser-His-Lys-Gly-Pro-Nle-Aib-paraBrPhe |  |  |  | Nle11-Aib12, minor |  |

Further lines, with some results ahead:

| Ki [2] [nM] | remaining at 0.5 h, 80 µM [3] [%] | remaining at 1 h, 80 µM [3] [%] | cleaved bond [5] | Compound | other results |
| --- | --- | --- | --- | --- | --- |
| 0.17 ± 0.05 | 45 ± 6 | 38 ± 3 |  | CCCC[C@H](NC(=O)[C@@H]1CCCN1C(=O)CNC(=O)[C@H](CCCCN)NC(=O)[C@H](Cc1c[nH]cn1)NC(=O)[C@H](CO)NC(=O)[C@](C)(CC(C)C)NC(=O)[C@H](CCCNC(=N)N)NC(=O)[C@@H]1CCCN1C(=O)[C@H](CCCNC(=N)N)NC(=O)[C@@H]1CCC(=O)N1)C(=O)NC(C)(C)C(=O)N[C@@H](Cc1ccc(Br)cc1)C(=O)O [Peptide 14, pGlu-Arg-Pro-Arg-αMeLeu-Ser-His-Lys-Gly-Pro-Nle-Aib-paraBrPhe] ([pGlu]RPR[αMeL]SHKGP[Nle][Aib][Phe(4-Br)]-OH; C-terminus assumed) | effect on heart rate (HR) [1]: significant and pronounced effect of increasing the murine HR; also recorded: had an impact on the heart rate; blood pressure lowering (hypotensive) effect [1]: without inducing any vasoactive effects; receptor binding affinity (in words) [2]: modest improvement in receptor binding |
| 1 ± 0.1 | 83 ± 3 | 57 ± 1 |  | CCCC[C@H](NC(=O)[C@@H]1CCCN1C(=O)CNC(=O)[C@H](CCCCN)NC(=O)[C@H](Cc1c[nH]cn1)NC(=O)[C@H](CO)NC(=O)[C@H](CC(C)C)NC(=O)N(CCCNC(=N)N)NC(=O)[C@@H]1CCCN1C(=O)[C@H](CCCNC(=N)N)NC(=O)[C@@H]1CCC(=O)N1)C(=O)NC(C)(C)C(=O)N[C@@H](Cc1ccc(Br)cc1)C(=O)O [Peptide 16, pGlu-Arg-Pro-azaArg-Leu-Ser-His-Lys-Gly-Pro-Nle-Aib-paraBrPhe] ([pGlu]RP[X1]LSHKGP[Nle][Aib][Phe(4-Br)]-OH; C-terminus assumed) | effect on heart rate (HR) [1]: significant and pronounced effect of increasing the murine HR; also recorded: had an impact on the heart rate; blood pressure lowering (hypotensive) effect [1]: without inducing any vasoactive effects; weaker affinity compared to 1, by a factor ([2]; ratio of Ki to native 1): 3 |
| 0.13 ± 0.063 | 19 ± 5 | 2 ± 1 |  | CCCC[C@H](NC(=O)[C@@H]1CCCN1C(=O)CNC(=O)[C@H](CCCCN)NC(=O)[C@H](Cc1c[nH]cn1)NC(=O)[C@H](CO)NC(=O)N(CC(C)C)NC(=O)[C@H](CCCNC(=N)N)NC(=O)[C@@H]1CCCN1C(=O)[C@H](CCCNC(=N)N)NC(=O)[C@@H]1CCC(=O)N1)C(=O)NC(C)(C)C(=O)N[C@@H](Cc1ccc(Br)cc1)C(=O)O [Peptide 18, pGlu-Arg-Pro-Arg-azaLeu-Ser-His-Lys-Gly-Pro-Nle-Aib-paraBrPhe] ([pGlu]RPR[azaLeu]SHKGP[Nle][Aib][Phe(4-Br)]-OH; C-terminus assumed) | ability to rescue the heart from ischemic reperfusion injury [4]: behaved comparably to that of the negative saline control; receptor binding affinity (in words) [2]: modest improvement in receptor binding |
|  |  |  | Nle15-Aib16, minor | Lys-Phe-Arg-Arg-Gln-Arg-Pro-αMeArg-Leu-Ser-His-Lys-Gly-Pro-Nle-Aib-paraBrPhe |  |
|  |  |  | Nle11-Aib12, minor | pGlu-Arg-Pro-azaArg-Leu-Ser-His-Lys-Gly-Pro-Nle-Aib-paraBrPhe |  |
